Experimental data as given in patent US11702707B2, “Systems and methods for assessing contamination of drinking water” (priority 2011, dated 2023).

Test system: HepG2 cells
Assay: FACTORIAL transcription factor signature assay (reporter transcription units) in a test cell system
Type: cell-based, human

Row | Compound | most affected reporter transcription units (transcription factor signature) (24 hours after exposure) | also measured
1 | O=Cc1c2[nH]c3ccccc3c2cc2[nH]c3ccccc3c12 [6-formylindolo-[3,2-b]carbazole] | – | specific pathway shown by fluorescence peak manifestation (transcription factor signature) (HepG2 cells, after 24 hours exposure): Ahryloxane receptor (AhR)
2 | lipopolysaccharide [endotoxin (lipopolysaccharide, LPS)] | NF-kappaB and Interferon-specific response element (ISRE) | –
3 | [Cl][Cd][Cl] [cadmium dichloride] | – | reporter elements with most pronounced cellular response (transcription factor signature) (24 hours after exposure, 2.5 μM, 0.6 μM, 0.16 μM and 0.04 μM): most pronounced for the metallothionein response element (MRE) and the heat shock-response element (HSE)
4 | triphenyltin | cellular heat shock response element (HSE), the peroxisome proliferator activating protein (PPAR) and the oxidative stress-specific RTU, NRF-2/ARE | –
